# Results taken from publication PMC5914168 (ChemMedChem, 2017).
# Values joined by “and” are separate entries in the source; they are usually repeats but may differ in a detail not shown here. Equal values may be shown once.
# Tests used:
# [1] = target: BMP2K kinase domain (38-345) (Homo sapiens, UniProt Q9NSY1); assay: TR-FRET ligand binding displacement assay, BMP2K
# [2] = target: AAK1 kinase domain (31-396) (Homo sapiens, UniProt Q2M2I8); assay: TR-FRET ligand binding displacement assay, AAK1
# AAK1 kinase domain (31-396), sequence (Q2M2I8 31-396): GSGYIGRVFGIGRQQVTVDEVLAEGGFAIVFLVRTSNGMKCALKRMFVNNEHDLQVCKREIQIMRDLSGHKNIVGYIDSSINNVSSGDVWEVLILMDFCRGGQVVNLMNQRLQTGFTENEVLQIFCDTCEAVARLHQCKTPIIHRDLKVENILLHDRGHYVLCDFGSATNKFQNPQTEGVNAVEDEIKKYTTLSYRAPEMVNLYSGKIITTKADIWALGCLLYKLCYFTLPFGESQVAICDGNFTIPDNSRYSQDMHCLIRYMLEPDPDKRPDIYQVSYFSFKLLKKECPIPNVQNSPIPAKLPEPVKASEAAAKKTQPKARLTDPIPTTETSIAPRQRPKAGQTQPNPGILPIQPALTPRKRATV
# [3] = target: T1, GAK kinase domain (12-347) (Homo sapiens, UniProt O14976); assay: TR-FRET ligand binding displacement assay, GAK; conditions: for NAK selectivity (ratio of GAK Ki and Ki of nearest NAK family member): selectivity against the nearest NAK family member
# T1 sequence (O14976 12-347): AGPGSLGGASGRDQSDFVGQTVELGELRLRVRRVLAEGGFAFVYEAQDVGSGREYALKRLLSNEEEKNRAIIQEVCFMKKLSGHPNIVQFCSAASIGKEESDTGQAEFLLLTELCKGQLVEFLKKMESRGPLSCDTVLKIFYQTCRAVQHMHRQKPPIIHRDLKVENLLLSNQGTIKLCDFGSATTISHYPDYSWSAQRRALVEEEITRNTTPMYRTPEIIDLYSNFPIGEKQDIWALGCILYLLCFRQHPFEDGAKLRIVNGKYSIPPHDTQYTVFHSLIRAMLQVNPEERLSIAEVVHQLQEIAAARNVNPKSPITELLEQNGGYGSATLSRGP
# [4] = target: STK16 kinase domain (13-305) (Homo sapiens, UniProt O75716); assay: TR-FRET ligand binding displacement assay, STK16
# STK16 kinase domain (13-305), sequence (O75716 13-305): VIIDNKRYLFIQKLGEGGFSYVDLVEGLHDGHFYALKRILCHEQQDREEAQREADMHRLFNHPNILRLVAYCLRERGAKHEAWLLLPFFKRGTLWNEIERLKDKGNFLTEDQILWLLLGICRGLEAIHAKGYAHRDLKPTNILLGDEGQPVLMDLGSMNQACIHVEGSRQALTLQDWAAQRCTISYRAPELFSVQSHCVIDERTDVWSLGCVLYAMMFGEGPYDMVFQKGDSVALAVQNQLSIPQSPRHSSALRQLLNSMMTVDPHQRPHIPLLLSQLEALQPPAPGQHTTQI
# [5] = target: T2, N-terminal Nano Luciferase/GAK fusion (NL-GAK) in HEK293 cells (Homo sapiens, UniProt O14976); assay: GAK nanoBRET cellular target engagement assay; conditions: for IC50: NanoBRET GAK IC50, HEK293 cells, 8-point dose response, average of 2 experiments
# T2 sequence (O14976 1-1311): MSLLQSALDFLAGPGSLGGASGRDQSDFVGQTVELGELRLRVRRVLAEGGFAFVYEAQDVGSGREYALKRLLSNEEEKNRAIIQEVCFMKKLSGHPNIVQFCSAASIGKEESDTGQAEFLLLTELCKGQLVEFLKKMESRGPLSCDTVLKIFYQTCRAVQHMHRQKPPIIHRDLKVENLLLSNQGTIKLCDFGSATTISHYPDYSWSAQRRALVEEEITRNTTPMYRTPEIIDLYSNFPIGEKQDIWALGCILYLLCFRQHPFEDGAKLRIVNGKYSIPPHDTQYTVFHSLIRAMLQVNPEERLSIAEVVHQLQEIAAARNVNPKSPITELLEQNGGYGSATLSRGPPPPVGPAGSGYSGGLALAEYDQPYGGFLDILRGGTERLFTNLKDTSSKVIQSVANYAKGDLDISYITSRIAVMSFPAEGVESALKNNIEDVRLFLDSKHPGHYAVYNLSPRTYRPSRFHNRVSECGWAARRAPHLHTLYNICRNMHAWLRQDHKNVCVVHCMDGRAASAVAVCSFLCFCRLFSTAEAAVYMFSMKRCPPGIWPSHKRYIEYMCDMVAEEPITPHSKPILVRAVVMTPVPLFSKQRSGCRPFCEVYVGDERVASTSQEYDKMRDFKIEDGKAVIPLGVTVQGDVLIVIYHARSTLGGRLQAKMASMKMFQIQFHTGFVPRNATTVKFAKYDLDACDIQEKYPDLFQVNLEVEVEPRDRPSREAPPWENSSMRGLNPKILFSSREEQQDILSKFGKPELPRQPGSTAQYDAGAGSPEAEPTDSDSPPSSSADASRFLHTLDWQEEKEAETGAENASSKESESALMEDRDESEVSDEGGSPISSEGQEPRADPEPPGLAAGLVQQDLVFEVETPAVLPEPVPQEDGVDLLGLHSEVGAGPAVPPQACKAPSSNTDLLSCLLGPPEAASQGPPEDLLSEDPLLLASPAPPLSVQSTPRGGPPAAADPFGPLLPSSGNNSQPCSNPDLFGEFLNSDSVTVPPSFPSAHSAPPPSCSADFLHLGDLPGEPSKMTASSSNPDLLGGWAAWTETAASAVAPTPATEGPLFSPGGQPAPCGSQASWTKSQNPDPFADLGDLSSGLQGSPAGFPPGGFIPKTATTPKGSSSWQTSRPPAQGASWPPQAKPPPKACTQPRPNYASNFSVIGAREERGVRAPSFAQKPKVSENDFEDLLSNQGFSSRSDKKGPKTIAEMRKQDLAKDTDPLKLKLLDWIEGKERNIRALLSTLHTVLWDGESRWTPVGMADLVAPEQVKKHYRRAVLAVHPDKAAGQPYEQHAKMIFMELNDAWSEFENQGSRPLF
# [6] = target: T3, kinases in SUM159 cell lysate (>240 protein kinases profiled) (Homo sapiens, UniProt O14976); assay: Multiplexed inhibitor beads / mass spectrometry; type: binding; conditions: SUM159 lysate, highest concentration (10 nM), 30 minutes on ice
# T3 sequence (O14976 1-1311): T2 sequence (O14976 1-1311)
# [7] = system: kinases in SUM159 cell lysate (>240 protein kinases profiled); assay: Multiplexed inhibitor beads / mass spectrometry; type: binding; conditions: SUM159 cell lysate
# [8] = system: GAK; conditions: cited from earlier work
# BMP2K kinase domain (38-345), sequence (Q9NSY1 38-345): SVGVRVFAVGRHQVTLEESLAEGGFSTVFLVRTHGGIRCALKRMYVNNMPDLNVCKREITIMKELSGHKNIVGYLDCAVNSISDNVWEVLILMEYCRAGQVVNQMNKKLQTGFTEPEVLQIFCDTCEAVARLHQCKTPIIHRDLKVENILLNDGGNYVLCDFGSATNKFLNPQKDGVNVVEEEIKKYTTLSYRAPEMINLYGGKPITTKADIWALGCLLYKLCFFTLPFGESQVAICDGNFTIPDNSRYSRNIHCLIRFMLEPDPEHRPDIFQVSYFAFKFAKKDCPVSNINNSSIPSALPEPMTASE
Ki [1],Ki [2],Ki [4],IC50 [5],SMILES,"off target activity on GAK, potency [8]",also measured
> 100000 nM,> 100000 nM,> 100000 nM,780 nM,"COc1cc(Nc2ccnc3ccccc23)cc(OC)c1OC [Compound 41, N-(3,4,5-Trimethoxyphenyl)quinolin-4-amine]",–,"fold drop in GAK potency ([3]; relative to 1): 10 fold; NAK selectivity (ratio of GAK Ki and Ki of nearest NAK family member) [3]: >2500; fold decrease in cellular potency ([5]; nanoBRET, relative to 1): 4 fold"
> 100000 nM,> 100000 nM,> 100000 nM,4400 nM,"COc1cc(Nc2ccnc3cc(F)cc(F)c23)cc(OC)c1OC [Compound 44, 5,7-Difluoro-N-(3,4,5-trimethoxyphenyl)quinolin-4-amine]",–,Ki [3]: 140 nM; NAK selectivity (ratio of GAK Ki and Ki of nearest NAK family member) [3]: >720
> 100000 nM,> 100000 nM,–,330 nM,"COc1cc(Nc2ccnc3ccc(C(C)(C)C)cc23)cc(OC)c1OC [Compound 45, 6-(tert-Butyl)-N-(3,4,5-trimethoxyphenyl)quinolin-4-amine]",–,Ki [3]: 8.1 nM
–,–,–,~350 nM and 350 nM,"COc1cc(Nc2ccnc3ccc(C#N)cc23)cc(OC)c1OC [Compound 46, 4-((3,4,5-Trimethoxyphenyl)amino)quinoline-6-carbonitrile]",–,–
–,–,–,–,COc1cc(Nc2c(C#N)cnc3cc(OCCCN4CCN(C)CC4)c(OC)cc23)c(Cl)cc1Cl [bosutinib],low nanomolar range,–
–,–,–,–,Cc1nc(Nc2ncc(C(=O)Nc3c(C)cccc3Cl)s2)cc(N2CCN(CCO)CC2)n1 [dasatinib],low nanomolar range,–
–,–,–,–,C#Cc1cccc(Nc2ncnc3cc(OCCOC)c(OCCOC)cc23)c1 [erlotinib],low nanomolar range,–
–,–,–,–,COc1cc2ncnc(Nc3ccc(F)c(Cl)c3)c2cc1OCCCN1CCOCC1 [gefitinib],low nanomolar range,–

SMILES,Ki [1],Ki [2],Ki [4],IC50 [5],"off target activity on GAK, potency [8]",also measured
"COc1cc2nccc(Nc3cc(OC)c(OC)c(OC)c3)c2cc1OC [Compound 49, 6,7-Dimethoxy-N-(3,4,5-trimethoxyphenyl)quinolin-4-amine]",–,–,> 100000 nM,–,–,"fold cellular potency increase ([5]; nanoBRET, over the single methoxy substitutions 48 & 50): 14–17 fold; GAK depletion in MIB/MS [6]: ~10 fold; kinases bound in MIB/MS (kinome selectivity) [7]: binding to only GAK and RIPK2"
